# Values quoted from earlier work in US9636287B2, “Primecoat compositions for proteinaceous substrates and methods of priming proteinaceous substrates therewith” (Mad River Science, priority 2012, dated 2017).
# Tested on: EpiDerm Skin Model (normal, human-derived epidermal keratinocytes, NHEK)
# Conditions: MatTek Corporation general guideline groupings, example materials
Molecule,ET-50 (hrs),Expected In vivo Irritancy,ET-50 [h]
"CCCCCCCCCCCCOS(=O)(=O)[O-].[Na+] [1% Sodium Dodecyl Sulfate, Sodium Dodecyl Sulfate]",0.5-4^ hrs,Moderate,–
"O=[N+]([O-])O [Conc. Nitric Acid, Nitric Acid]",–,"Severe, probably corrosive",<0.5
Triton X-100 [1% Triton X-100],–,Moderate to Mild,4 to 12
